In brackets after ≈: the same amount, converted by molar mass. Some results are limits rather than exact numbers.

Data set [1] concerns the target T1, Tyrosine-protein kinase BTK (Homo sapiens, UniProt Q06187). The experiment in a line: Inhibition of human BTK using fluorescein-labeled polyGAT peptide as substrate incubated for 30 mins by FRET assay.
Data set [2] in a line: Kinetic aqueous solubility of the compound in pH 6.8. Type of data set: physicochemical. Particulars: read-out: Kinetic_solubility.
Data set [3] is described as follows: Kinetic aqueous solubility of the compound in pH 3. Type of data set: physicochemical. The note with it: read-out: Kinetic_solubility.
The nature of data set [4]: Protein binding in human plasma assessed as unbound fraction at 2 uM by rapid equilibrium dialysis method. Type of data set: ADME, cell-free.
Data set [5] in a line: Kinetic solubility of the compound at pH 1.5 by shake flask method. Type of data set: physicochemical. Particulars: buffer, read-out: Kinetic_solubility.
Data set [6] is described as follows: Kinetic solubility of the compound at pH 7.5 by shake flask method. Type of data set: physicochemical. Particulars: buffer, read-out: Kinetic_solubility.
The nature of data set [7]: Lipophilicity, logD of the compound at pH 7.6 by shake flask assay. Type of data set: physicochemical. Particulars: buffer.
A short description of data set [8]: Half life in Beagle dog at 5 mg/kg, po. The note with it: in vivo. Type of data set: ADME, organism-based, Canis lupus familiaris.
A short description of data set [9]: Half life in Sprague-Dawley rat at 5 mg/kg, po. Type of data set: ADME, organism-based. Particulars: in vivo.
Data set [10] in a line: Clearance in Sprague-Dawley rat at 1 mg/kg, iv. Particulars: in vivo. Type of data set: ADME, organism-based.
Data set [11] in a line: Clearance in Beagle dog at 1 mg/kg, iv. Particulars: in vivo. Type of data set: ADME, organism-based, Canis lupus familiaris.
The nature of data set [12]: Clearance in Sprague-Dawley rat assessed as hepatic blood flow at 1 mg/kg, iv. Type of data set: ADME, organism-based, Liver. Particulars: in vivo.
Data set [13] in a line: Clearance in Beagle dog assessed as hepatic blood flow at 1 mg/kg, iv. Type of data set: ADME, organism-based, Canis lupus familiaris, Liver. The note with it: in vivo.
Data set [14] can be described thus: Volume of distribution at steady state in Sprague-Dawley rat at 1 mg/kg, iv. The note with it: in vivo, read-out: Vdss. Type of data set: ADME, organism-based.
A short description of data set [15]: Volume of distribution at steady state in Beagle dog at 1 mg/kg, iv. Type of data set: ADME, organism-based, Canis lupus familiaris. The note with it: in vivo, read-out: Vdss.
A short description of data set [16]: AUC in Sprague-Dawley rat at 5 mg/kg, po. Type of data set: ADME, organism-based. Particulars: in vivo. On the set-up: dose 5 mg/kg.
A short description of data set [17]: AUC in Beagle dog at 5 mg/kg, po. Type of data set: ADME, organism-based, Canis lupus familiaris. On the set-up: dose 5 mg/kg. Particulars: in vivo.
The nature of data set [18]: Cmax in Sprague-Dawley rat at 5 mg/kg, po. Type of data set: ADME, organism-based. On the set-up: route oral, dose 5 mg/kg. Particulars: in vivo.
The nature of data set [19]: Cmax in Beagle dog at 5 mg/kg, po. Type of data set: ADME, organism-based, Canis lupus familiaris. Particulars: in vivo. On the set-up: route oral, dose 5 mg/kg.
Data set [20] can be described thus: Oral bioavailability in Sprague-Dawley rat at 5 mg/kg. The note with it: in vivo. Type of data set: ADME, organism-based.
Data set [21] in a line: Oral bioavailability in Beagle dog at 5 mg/kg. Type of data set: ADME, organism-based, Canis lupus familiaris. Particulars: in vivo.
A short description of data set [22]: Solubility of the compound in simulated gastric fluid at pH 1.6. Type of data set: physicochemical.
Data set [23] can be described thus: Solubility of the compound in FaSIF at pH 6.5. Type of data set: physicochemical.
The nature of data set [24]: Solubility of the compound in FeSIF at pH 5.9. Type of data set: physicochemical.
A short description of data set [25]: Protein binding in rat plasma assessed as unbound fraction at 2 uM by rapid equilibrium dialysis method. Type of data set: ADME, cell-free. (In equilibrium dialysis only unbound substance equilibrates across the membrane.)
In data set [26] the target is Cytochrome P450 3A4 (Homo sapiens, UniProt P08684). The data set can be described thus: Inhibition of CYP3A4 (unknown origin). Type of data set: ADME.
Sequence of Cytochrome P450 3A4 (P08684 whole entry): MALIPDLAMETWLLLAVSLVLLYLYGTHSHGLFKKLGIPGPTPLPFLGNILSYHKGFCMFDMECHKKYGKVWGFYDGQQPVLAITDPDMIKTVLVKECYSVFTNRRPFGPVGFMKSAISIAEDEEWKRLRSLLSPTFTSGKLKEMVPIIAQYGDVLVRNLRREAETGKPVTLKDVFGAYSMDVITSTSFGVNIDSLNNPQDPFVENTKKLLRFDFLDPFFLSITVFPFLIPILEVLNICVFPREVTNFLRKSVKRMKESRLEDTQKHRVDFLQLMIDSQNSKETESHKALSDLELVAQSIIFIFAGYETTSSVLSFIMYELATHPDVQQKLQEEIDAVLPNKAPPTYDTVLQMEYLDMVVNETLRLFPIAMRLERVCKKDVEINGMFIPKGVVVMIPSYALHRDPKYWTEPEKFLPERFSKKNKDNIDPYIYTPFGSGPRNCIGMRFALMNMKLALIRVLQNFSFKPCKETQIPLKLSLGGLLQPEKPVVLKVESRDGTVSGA
Data set [27] concerns the target Cytochrome P450 2C9 (Homo sapiens, UniProt P11712). The data set can be described thus: Inhibition of CYP2C9 (unknown origin). Type of data set: ADME.
The target of data set [28] is T1, Tyrosine-protein kinase BTK. The experiment in a line: Inhibition of BTK phosphorylation in human whole blood assessed as reduction in BTK phosphorylation incubated for 30 mins. Type of data set: tissue-based.
A short description of data set [29]: Dissociation constant, pKa of the compound. Type of data set: physicochemical.

T1 sequence (Q06187 whole entry): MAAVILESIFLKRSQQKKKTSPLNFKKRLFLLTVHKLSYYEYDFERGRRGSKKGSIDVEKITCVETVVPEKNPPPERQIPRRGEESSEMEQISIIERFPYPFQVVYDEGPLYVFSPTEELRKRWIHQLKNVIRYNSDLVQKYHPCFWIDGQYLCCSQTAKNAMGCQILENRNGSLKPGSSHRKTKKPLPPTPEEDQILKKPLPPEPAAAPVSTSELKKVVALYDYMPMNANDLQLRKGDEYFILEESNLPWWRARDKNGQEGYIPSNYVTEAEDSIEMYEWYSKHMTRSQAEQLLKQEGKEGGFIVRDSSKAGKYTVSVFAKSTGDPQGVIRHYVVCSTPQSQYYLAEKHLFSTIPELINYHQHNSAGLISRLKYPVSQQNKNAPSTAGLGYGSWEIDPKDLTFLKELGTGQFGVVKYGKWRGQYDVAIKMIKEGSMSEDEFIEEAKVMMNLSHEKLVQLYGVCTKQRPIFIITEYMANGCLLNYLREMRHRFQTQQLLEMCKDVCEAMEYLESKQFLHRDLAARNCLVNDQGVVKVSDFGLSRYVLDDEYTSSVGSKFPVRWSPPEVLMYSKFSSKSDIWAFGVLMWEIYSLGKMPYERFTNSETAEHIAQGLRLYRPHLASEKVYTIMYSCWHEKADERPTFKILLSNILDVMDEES
Sequence of Cytochrome P450 2C9 (P11712 whole entry): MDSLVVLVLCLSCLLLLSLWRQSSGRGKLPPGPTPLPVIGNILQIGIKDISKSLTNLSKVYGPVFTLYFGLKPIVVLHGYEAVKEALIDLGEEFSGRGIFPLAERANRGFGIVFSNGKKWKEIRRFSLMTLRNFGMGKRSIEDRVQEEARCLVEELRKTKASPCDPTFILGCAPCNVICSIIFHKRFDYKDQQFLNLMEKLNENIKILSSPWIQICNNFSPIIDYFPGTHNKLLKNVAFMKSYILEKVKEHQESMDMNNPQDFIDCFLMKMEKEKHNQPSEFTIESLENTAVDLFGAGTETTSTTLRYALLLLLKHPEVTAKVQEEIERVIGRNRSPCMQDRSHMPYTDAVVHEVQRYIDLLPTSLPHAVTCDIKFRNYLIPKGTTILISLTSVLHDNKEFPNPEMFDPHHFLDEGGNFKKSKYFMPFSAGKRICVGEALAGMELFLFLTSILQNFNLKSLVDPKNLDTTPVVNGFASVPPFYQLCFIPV

As a reminder, the IC50 is the concentration at which inhibition is half-maximal. On to `C=CC(=O)Nc1cccc(Oc2nc(Nc3ccc(N4CCN(C)CC4)cc3)nc3ccoc23)c1` [POSELTINIB], for which the IC50 in [1] was determined as 1 nM.

For orientation: fraction unbound means free concentration divided by total concentration. In general, logD refers to lipophilicity at a set pH, counting ionised and neutral species. The term half-life denotes the time in which the quantity being followed falls by half. The low end stands for fast loss, the high end for slow loss. With `Cc1cc(-c2ccnc(Nc3cnn(C)c3)n2)ccc1CNC(=O)N1CC(OC(C)C)C1`, the solubility kinetic in [2] was less than 30 µg/mL; in data set [3], greater than 30 µg/mL; in data set [5], less than 30 µg/mL; in data set [6], greater than 30 µg/mL. Besides, the fraction unbound at 2 µM in data set [4] was 0.06. The compound further yielded a logD in data set [7] of 2.7. The values for the half-life in [8] and in [9] were 126 min and 72 min, respectively.

In general, clearance refers to the rate of elimination divided by the concentration. Read a low clearance as inefficient removal. Broadly, the AUC is concentration integrated over time. A higher AUC goes with high exposure. As usually defined, the Cmax is the highest concentration seen after dosing. As usually defined, the bioavailability is dose-corrected exposure relative to a reference, in per cent. The low end stands for little systemic uptake, the high end for much systemic uptake. In general, solubility refers to the concentration that dissolves in the medium under given conditions. A lower solubility goes with little dissolved substance. `CC(C)OC1CN(C(=O)N[C@@H]2CCCCc3cc(-c4ccnc(Nc5cnn(C)c5)n4)ccc32)C1`: the fraction unbound at 2 µM in data set [4] came to 0.07. Besides, the solubility kinetic in data set [5] and in [6] was greater than 30 µg/mL throughout. In data set [7], this compound yielded a logD of 3.6. The results for the half-life in data set [8] and in data set [9] were 144 min and 78 min, respectively. The clearance in data set [10] is 6 mL/min/kg; in data set [11], 4 mL/min/kg. Also, the QH in [12] is 11%; in [13] it was 31%. In addition, the figures for the Vd in data set [14] and in data set [15] were 0.6 L/kg and 1.6 L/kg, respectively. For the same compound, the AUC amounted to 6940 ng·h/mL in data set [16] and 14200 ng·h/mL in data set [17]. Further, the values for the Cmax in [18] and in [19] were 2460 ng/mL and 3710 ng/mL, respectively. The figures for the bioavailability in data set [20] and in data set [21] were 69% and 92%, respectively. Moreover, the figures for the solubility in [22], in data set [23] and in [24] were greater than 15 mg/mL, 80 µg/mL (≈ 168 µM) and 170 µg/mL (≈ 357 µM), respectively.

As for `Cn1cc(Nc2nccc(-c3ccc4c(c3)CCNC[C@H]4NC(=O)c3cn(C(C)(C)C)nn3)n2)cn1`, the solubility kinetic in [2] and in data set [5] was greater than 50 µg/mL in each case. Further, the fraction unbound at 2 µM in data set [4] was determined as 0.12. In [7], this compound returned a logD of 2.3.

Regarding `Cn1cc(Nc2nccc(-c3ccc4c(c3)CNCC[C@H]4NC(=O)c3cn(C(C)(C)C)nn3)n2)cn1`, the solubility kinetic in data set [2] and in data set [5] was greater than 50 µg/mL throughout. The fraction unbound at 2 µM in data set [4] was 0.18. The compound also had a logD in data set [7] of 2.9.

For `Cn1cc(Nc2nccc(-c3ccc4c(c3)CCCC[C@H]4NC(=O)c3nnc(C(C)(C)C)o3)n2)cn1`, the solubility kinetic was less than 20 µg/mL in data set [2] and greater than 50 µg/mL in data set [5]. Also, the fraction unbound at 2 µM in [4] is 0.041; in data set [25], 0.008. In addition, the logD in data set [7] is 2.3. In addition, the IC50 was greater than 10 µM in data set [26] and 4000 nM in [27].

As for `Cc1c(-c2c(F)cc(C(N)=O)c3[nH]c4c(c23)CC[C@H](C(C)(C)O)C4)cccc1-n1c(=O)c2cccc(F)c2n(C)c1=O` [BMS-986142], the IC50 in data set [1] was found to be 1 nM; in [28], 110 nM.

Consider `Cn1cc(Nc2nccc(-c3ccc4c(c3)CCCC[C@H]4NC(=O)c3nc(C(C)(C)C)no3)n2)cn1`, for which the solubility kinetic is less than 20 µg/mL in data set [2] and greater than 50 µg/mL in data set [5]. The fraction unbound at 2 µM was 0.008 in [4] and 0.009 in data set [25]. The logD in [7] was determined as 2.8. Besides, the values for the IC50 in data set [26] and in data set [27] were 2.6 µM and 400 nM, respectively.

By pKa is commonly meant the pH at which an ionisable group is half protonated. A lower pKa goes with a stronger acid or weaker base. Consider `CN1CC[C@@H](NC(=O)c2cn(C(C)(C)C)nn2)c2ccc(-c3ccnc(Nc4cnn(C)c4)n3)cc2C1`, for which, in data set [1], the midpoint of inhibition, the IC50, lay at 0.8 nM. In addition, the solubility kinetic in data set [2] and in data set [5] was greater than 50 µg/mL in each case. Further, the unbound share (fraction unbound) at 2 µM in [4] turned out to be 0.19. In addition, the log distribution coefficient (logD) in data set [7] came out at 1. In addition, the pKa in data set [29] is 4.

Consider `CC(C)OC1CN(C(=O)NCc2ccc(-c3ccnc(Nc4cnn(C)c4)n3)cc2Cl)C1`, for which the solubility kinetic in data set [2] and in [3] was less than 30 µg/mL in each case.

Consider `CN1CCc2cc(-c3ccnc(Nc4cnn(C)c4)n3)ccc2[C@H](NC(=O)c2cn(C(C)(C)C)nn2)C1`, for which the fraction unbound at 2 µM in data set [4] is 0.07. The solubility kinetic in data set [5] was greater than 50 µg/mL. The same compound gave a logD in data set [7] of 2.9.

On to `CC(C)OC1CN(C(=O)NC2CCCc3cc(-c4ccnc(Nc5cnn(C)c5)n4)ccc32)C1` (stereo unspecified), for which the solubility kinetic in data set [2] and in [3] was greater than 30 µg/mL each time.

On to `Cc1c(NC(=O)c2cc3c(s2)CCCC3)cccc1-c1cn(C)c(=O)c(Nc2ccc(C3CN(C)CC(=O)N3C)cc2)n1` (stereo unspecified), for which the IC50 is 1 nM in data set [1] and 150 nM in [28].

For the compound `Cn1cc(Nc2nccc(-c3ccc4c(c3)CCCC[C@H]4NC(=O)c3cn(C(C)(C)C)nn3)n2)cn1`, the solubility kinetic in [2] is less than 20 µg/mL; in data set [5], greater than 50 µg/mL. Further, the fraction unbound at 2 µM was found to be 0.011 in [4] and 0.002 in data set [25]. This compound also gave a logD in [7] of 3.5. Besides, the values for the IC50 in data set [26] and in [27] were 6.4 µM and 2000 nM, respectively.

Consider `COCCN1CC[C@@H](NC(=O)c2cn(C(C)(C)C)nn2)c2ccc(-c3ccnc(Nc4cnn(C)c4)n3)cc2C1`, for which the solubility kinetic in [2] and in [5] was greater than 50 µg/mL throughout. Besides, the fraction unbound at 2 µM in data set [4] came to 0.1. This compound also came in with a logD in data set [7] of 2.9. Also, the pKa in data set [29] was determined as 3.1.

Take `CC(C)OC1CN(C(=O)NCc2ccc(-c3ccnc(Nc4cnn(C)c4)n3)cc2C(F)(F)F)C1`: the solubility kinetic in data set [2] and in [3] was less than 10 µg/mL each time.

In turn, `Cc1cc(-c2ccnc(Nc3cnn(C)c3)n2)c(F)cc1CNC(=O)N1CC(OC(C)C)C1` had a half-maximal inhibitory concentration (IC50) in data set [1] greater than 10000 nM.

For the compound `Cc1c(CNC(=O)N2CC(OC(C)C)C2)ccc(-c2ccnc(Nc3cnn(C)c3)n2)c1F`, the solubility kinetic in data set [2] and in data set [3] was greater than 10 µg/mL in each case.
